Assays:
5-lipoxygenase = molecular target: T1, 5-lipoxygenase (Rattus norvegicus, UniProt P12527); test: Inhibition of 5-lipoxygenase activity in RBL-1 cells (5-HETE production); assay type: cell-based; conditions: 37° C., 20 minutes, arachidonic acid + A-23187
T1 construct: endogenous in cells; host or cells: RBL-1
T1 sequence (P12527 1-673): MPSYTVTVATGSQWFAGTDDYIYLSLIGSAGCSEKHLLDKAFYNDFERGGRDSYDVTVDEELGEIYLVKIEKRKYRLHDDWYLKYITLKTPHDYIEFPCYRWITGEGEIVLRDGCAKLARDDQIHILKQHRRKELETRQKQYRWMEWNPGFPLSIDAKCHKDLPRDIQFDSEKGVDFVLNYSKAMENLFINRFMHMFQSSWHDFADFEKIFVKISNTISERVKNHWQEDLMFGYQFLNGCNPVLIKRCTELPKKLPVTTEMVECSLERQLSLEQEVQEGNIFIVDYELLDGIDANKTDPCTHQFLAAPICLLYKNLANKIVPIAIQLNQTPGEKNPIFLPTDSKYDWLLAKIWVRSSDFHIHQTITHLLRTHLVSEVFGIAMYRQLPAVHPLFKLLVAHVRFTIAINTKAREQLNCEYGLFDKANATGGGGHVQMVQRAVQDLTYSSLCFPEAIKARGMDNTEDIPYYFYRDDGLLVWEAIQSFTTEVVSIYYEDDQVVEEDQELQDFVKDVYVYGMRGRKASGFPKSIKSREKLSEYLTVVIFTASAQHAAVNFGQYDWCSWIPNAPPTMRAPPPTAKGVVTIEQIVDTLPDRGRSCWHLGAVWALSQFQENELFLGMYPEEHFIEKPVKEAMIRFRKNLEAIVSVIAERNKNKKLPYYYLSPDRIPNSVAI
Procedure: 10^7 RBL-1 cells (rat basophilic leukemia cells) are suspended in 0.5 ml of MCM (mast cell medium), and, then, a test solution (0.5 ml of MCM, 50 μg of arachidonic acid, 10 μg of A-23187 and 1 μM or 10 μM of the quinone compound) is added. The reaction is conducted at 37° C. for 20 minutes. After completion of the reaction, 4 ml of ethanol including 1,4-dimethoxy-2-methyl-3-(3-methoxypropyl)naphthalene are added (0.5 μg/ml) are added as an internal reference. After shaking well, the mixture is allowed to stand at room temperature for 10 minutes. Then, the mixture was centrifuged (2000 r.p.m./min.) for 10 minutes and the supernatant is separated. This supernatant is concentrated under reduced pressure to about 200 μl. To the concentrate is added a high performance liquid chromatography solvent [CH3 CN(1500): CH3 OH(500): water (1100): acetic acid(2); pH 5.6 (adjusted with aqueous ammonia)] to make a total of 1 ml. A 200 μl portion of this solution is taken and 5-HETE (5-hydroxyeicosatetraenoic acid) is assayed by high performance liquid chromatography. The degree of inhibition of 5-HETE production (IE) is expressed in terms of […], where a is the peak height or area after correction with the peak of the internal reference standard in the absence of the quinone compound and b is the peak height or area after correction with the peak of the internal reference standard in the presence of the quinone compound.

collagen biosynthesis = test: Inhibitory activity of collagen biosynthesis (collagen content of the uterus, with 17β-estradiol); assay type: in vivo, SD strain rats (female, 3 weeks old); conditions: for Degree of inhibition: uterus collagen
Procedure: In accordance with the method of R. A. Salvador et al. [Arch. Biochem. Biophys. 174, 382 (1976)], 0.2 mg/kg of each test compound was intraperitoneally administered to SD strain rats (.female., 3 weeks old) once a day for 6 days. After that, the collagen content of the uterus was determined and compared with that of control experiment.
*Rats were used 3 animals as one group; initial body weights 41 ± 2- 4

[1] = 17β-estradiol + compound, 0.2 mg/kg i.p. once a day for 6 days

| Compound | inhibition at 1 µM (5-lipoxygenase) [%] | inhibition at 10 µM (5-lipoxygenase) [%] | Collagen content of uterus (collagen biosynthesis; [1]) [mg] | Degree of inhibition (collagen biosynthesis; [1]) [%] | further results |
| --- | --- | --- | --- | --- | --- |
| COC1=C(OC)C(=O)C(CCCCOc2ccc(/C=C/C(=O)O)cc2)=C(C)C1=O | 72 | 83.1 | – | – | – |
| COC1=C(OC)C(=O)C(CC=C(C)COc2ccc(/C=C/C(=O)O)cc2)=C(C)C1=O | 76.6 | 85.8 | – | – | – |
| COC1=C(C)C(=O)C(COc2ccc(CC(=O)O)cc2)=C(C)C1=O | 70.1 | 81.5 | – | – | – |
| CC1=C(C)C(=O)C(c2nc3cc(C(C)C(=O)O)ccc3o2)=C(C)C1=O (centres unmarked) | 63.5 | 79.2 | – | – | – |
| C[C@]12CC[C@@H]3c4ccc(O)cc4CC[C@H]3[C@@H]1CC[C@@H]2O [17β-estradiol, reference compound] | – | – | – | – | Collagen content of uterus (collagen biosynthesis; 17β-estradiol alone): 3.45 ± 0.11 mg; Body weight of rats (collagen biosynthesis; 17β-estradiol alone, 3 rats per group, initial body weight about 41 g): 73 ± 3 g |
| NC1=NN(c2cccc(C(F)(F)F)c2)CC1 [BW755C, reference compound] | 21.8 | 39.1 | – | – | – |
| CCCCCC#CCC#CCC#CCC#CCCCC(=O)O [ETYA, Eicosatetraynoic acid, reference compound] | 35.9 | 39.4 | – | – | – |
| COC1=C(OC)C(=O)C(/C=C/C(=O)O)=C(C)C1=O [drawing 30] | – | – | 2.53 ± 0.28 | 51 | – |
| COC1=C(OC)C(=O)C(/C=C/C(C)=O)=C(C)C1=O [drawing 31] | – | – | 2.98 ± 0.15 | 26 | – |
| COC1=C(OC)C(=O)C(COc2ccc(/C=C/C(=O)O)cc2)=C(C)C1=O [drawing 32] | – | – | 2.77 ± 0.25 | 38 | – |
| COC1=C(OC)C(=O)C(COc2ccc(/C=C/C(=O)O)cc2)=C(C)C1=O [drawing 37] | 73.9 | 83.5 | – | – | – |
| COC1=C(OC)C(=O)C(CC=C(C)COc2ccc(CC(=O)O)cc2)=C(C)C1=O [drawing 38] | 72.2 | 83.3 | – | – | – |
| COC1=C(OC)C(=O)C(CCCCCCCCCC(=O)N[C@@H](CCCNC(=N)N)C(=O)O)=C(C)C1=O [n: 9, Z:CONHArg, 10-(2,3-dimethoxy-5-methyl-1,4-benzoquinon-6-yl)decanoyl-L-arginine] | – | – | 2.86 ± 0.75 | 33 | – |

From patent US4874752A, “Benzoquinone derivatives and production thereof” (Takeda Chemical Industries, Ltd., priority 1982, dated 1989)
